Structures can show the parent of a compound that is named as a salt. Where two headings read alike, the source gives them in different places.
Tests used:
[1] = test system: Prostate carcinoma cell line PC-3; assay: In vitro prostate carcinoma cell proliferation inhibition assay (MTT); assay type: cell-based, human; settings: read-out: IC50 PC-3
Procedure: In vitro prostate carcinoma cell proliferation inhibition assay
Prostate carcinoma cell line PC-3 cells were suspended in Ham's F-12K medium (Flow Laboratories or Dainippon Pharmaceutical Co,. Ltd) supplemented with 10% fetal calf serum, and seeded in a 96-well microtiter plate (5000 cells/50 or 75 μl/well). The plate was then incubated in a 5% CO2 incubator at 37° C. On the following day, a 3-fold dilution series with the medium with serum of the test compound in N,N-dimethylformamide (DMF) (50 or 25 μl/well) were added (final volume […]) and the plate was incubated for another 3 days. Following addition of a thiazolyl-tetrazolium (MTT) solution, absorbance based on the viable cell number was determined "Tada et al., Journal of Immunological Methods, 93, 157 (1986)". With the estimated cell number in the control group to which the test compound solution was not added being taken as 100%, the percentage of the estimated cell number in each test group was determined and the concentration (IC50 value) of the test compound which was required for 50% inhibition of the estimated viable cell number in the control group was calculated.

[2] = test system: human prostatic carcinoma cells PC-3; assay: Inhibitory action against the growth of subcutaneously implanted tumor (Test Example 4, oral dosing); assay type: in vivo, human; BALB/c nu/nu mouse; settings: once a day for 3 weeks; for Tumor volume gain: 52nd day after transplantation, mean ± SD; for T/C: 52nd day, ratio of tumor volume gain treated/control
Procedure: Inhibitory action of the test compound against the growth of subcutaneously implanted tumor
The human prostatic carcinoma cells PC-3, which are maintained in vitro, were harvested using 0.05% trypsin, washed with Ham's F12K medium containing 10% serum, and then suspended in PBS (phosphate-buffered saline) at a concentration of 3×10^7 cells/ml. The aliquot of 100 μl was transplanted into the right central flank region of a 7-week old, male BALB/c nu/nu mouse using a syringe with a 25 gauge needle. After the size of the resulting tumor mass was measured on the 31st day after the transplanation, the mice were divided into groups of five animals (the average tumor volume of each group was between 273 and 293 mm^3), and then the treatment with test compound was commenced. Tumor volume was calculated according to the formulation: tumor volume=0.5×(the longest diameter)×(the shortest diameter)^2 after two-dimensional measurement of the tumor mass by a caliper. The test compound was suspended in 0.5% methylcellulose/physiological saline, and orally administered at a volume of 10 μl/g body weight. Thereafter the test compound was administered once a day for 3 weeks. The inhibitory action was assessed on the 52nd day after the transplanation, the first day after the last administration, by the ratio of tumor volume gain of treated groups to that of the control group (T/C %). The dosage of the test compound is expressed as mg/kg/shot.

[3] = Homo sapiens, 72 h, PC-3, 3 days incubation, MTT

Row | IC50 [1, 3] | Structure (SMILES) | other results
1 | < 1.52 nM | CCn1cnc2c(c(C)cn2Cc2ccc(C(=O)c3ccc(Cl)cc3)cc2)c1=O [Example 96, 7-[4-(4-Chlorobenzoyl)benzyl]-3-ethyl-5-methyl-7H-pyrrolo [2,3-d]pyrimidin-4(3H)-one] | –
2 | 4.5 nM | Cn1c(SCc2ccc(C(=O)c3ccc(N4CCC(N5CCCCC5)CC4)nc3)cc2)nc2ccsc2c1=O [Example 158, 3-Methyl-2-[4-[6-(4-piperidinopiperidinyl)nicotinoyl]benzylthio]thieno[3,2-d]pyrimidin-4(3H)-one hydrochloride] | –
3 | 0.94 nM | Cc1ccc(C(=O)c2ccc(COc3nc4n(c(=O)c3C)CCCS4)cc2)cc1 [Example 406, 7-Methyl-8-[4-(4-methylbenzoyl)benzyloxy]-3,4-dihydro-2H,6H-pyrimido[2,1-b][1,3]thiazin-6-one] | –
4 | 2 nM | Cc1cn(Cc2ccc(C(=O)c3ccc(Cl)cc3)cc2)c2ncn(C)c(=O)c12 [Example 94, 7-[4-(4-Chlorobenzoyl)benzyl]-3,5-dimethyl-7H-pyrrolo [2,3-d]pyrimidin-4(3H)-one] | –
5 | 8 nM | Cc1c(OCc2ccc(C(=O)c3ccc(C(F)(F)F)cc3)cc2)nc2ccccn2c1=O [Example 124, 3-Methyl-2-[4-(4-trifluoromethylbenzoyl)benzyloxy]pyrido[1,2-a]pyrimidin-4-one] | –
6 | < 1.52 nM | Cc1cccc2nc(SCc3ccc(C(=O)c4ccc(CSc5nnnn5CCN(C)C)cc4)cc3)n(C)c(=O)c12 [Example 138, 3,5-Dimethyl-2-[4-[4-[[1-(2-dimethylaminoethyl)-1H-tetrazol-5-yl]thiomethyl]benzoyl]benzylthio]-4(3H)-quinazolinone] | –
7 | 2.6 nM | O=C(c1ccc(Cn2ccn3c(=O)c4c(nc23)CCCC4)cc1)c1ccc(C(F)(F)F)cc1 [Example 329, 1-[4-(4-Trifluorobenzoyl)benzyl]-6,7,8,9-tetrahydroimidazo[2,1-b]quinazolin-5(1H)-one] | –
8 | 6 nM | Cn1ncc2c(c(Cl)c(Cl)n2Cc2ccc(C(=O)c3ccc(Cl)cc3)cc2)c1=O [Example 37, 1-[4-(4-Chlorobenzoyl)benzyl]-2,3-dichloro-5-methyl-1H-pyrrolo[2,3-d]pyridazin-4(5H)-one] | –
9 | < 1.52 nM | CC(C)(C)n1ncc2c(cnn2Cc2ccc(C(=O)c3ccc(Cl)cc3)cc2)c1=O [62(A), 5-Tert-butyl-1-[4-(4-chlorobenzoyl)benzyl]-1H-pyrazolo[3,4-d]pyridazin-4(5H)-one] | –
10 | < 1.52 nM | CCn1c(SC)nc2c(ccn2Cc2ccc(C(=O)c3ccc(Cl)cc3)cc2)c1=O [Example 252, 7-[4-(4-Chlorobenzoyl)benzyl]-3-ethyl-2-methylthio-7H-pyrrolo[2,3-d]pyrimidin-4-one] | –

The remaining lines, values behind:

Row | Structure (SMILES) | IC50 [1, 3] | other results
11 | Cn1ncc2c(c(Cl)c(Cl)n2Cc2ccc(C(=O)c3ccc(F)cc3)cc2)c1=O [Example 66, 1-[4-(4-Fluorobenzoyl)benzyl]-2,3-dichloro-5-methyl-1H-pyrrolo [2,3-d]pyridazin-4(5H)-one] | 8 nM | –
12 | Cc1nn(Cc2ccc(C(=O)c3ccc(Cl)cc3)cc2)c2cnn(C)c(=O)c12 [84(A), 1-[4-(4-Chlorobenzoyl)benzyl]-3,5-dimethyl-1H-pyrazolo [3,4-d]pyridazin-4(5H)-one] | 2 nM | –
13 | CCn1c(SC)nc2c(cnn2Cc2ccc(C(=O)c3ccc(Cl)cc3)cc2)c1=O [129(A)] | < 1.52 nM | –
14 | CCc1c(C)nc2n(Cc3ccc(C(=O)c4ccc(Cl)cc4)cc3)ccn2c1=O [Example 169, 1-[4-(4-Chlorobenzoyl)benzyl]-6-ethyl-7-methylimidazo[1,2-a]pyrimidin-5(1H)-one] | < 1.52 nM | –
15 | Cc1c(OCc2ccc(C(=O)c3ccc(C(F)(F)F)cc3)cc2)nc2n(c1=O)CCCC2 [Example 385, 3-Methyl-2-[4-(4-trifluoromethylbenzoyl)benzyloxy]-6,7,8,9-tetrahydro-4H-pyrido[1,2-a]pyrimidin-4-one] | 4.6 nM | Tumor volume gain ([2]; 25 mg/kg p.o.): 893 ± 247 mm^3; T/C ([2]; 25 mg/kg p.o.): 63%; Tumor volume gain ([2]; 50 mg/kg p.o.): 732 ± 156 mm^3; T/C ([2]; 50 mg/kg p.o.): 52%; Tumor volume gain ([2]; 75 mg/kg p.o.): 596 ± 176 mm^3; T/C ([2]; 75 mg/kg p.o.): 42%
16 | Cc1cccc2nc(SCc3ccc(C(=O)c4ccc(C(=O)N5CCN(C)CC5)cc4)cc3)n(C)c(=O)c12 [Example 184, 3,5-Dimethyl-2-[4-[4-(4-methylpiperazinocarbonyl)benzoyl]benzyl]thio-4(3H)-quinazolinone] | < 1.52 nM | –
17 | Cc1cccc2nc(SCc3ccc(C(=O)c4ccc(CN5CCN(C)CC5)cc4)cc3)n(C)c(=O)c12 [Example 144, 3,5-Dimethyl-2-[4-[4-(4-methylpiperazinylmethyl)benzoyl]benzylthio]-4(3H)-quinazolinone] | < 1.52 nM | –
18 | CCc1cccc2nc(SCc3ccc(C(=O)c4ccc(Cl)cc4)cc3)n(C)c(=O)c12 [Example 214, 2-[4-(4-Chlorobenzoyl)benzyl]thio-5-ethyl-3-methyl-4(3H)-quinazolinone] | 5.2 nM | –
19 | Cc1cn(C)c2nc(SCc3ccc(C(=O)c4ccc(F)cc4)cc3)n(C)c(=O)c12 [57(A), 2-[4-(4-Fluorobenzoyl)benzyl]thio-3,5,7-trimethyl-7H-pyrrolo[2,3-d]pyrimidin-4(3H)-one] | 5 nM | –
20 | Cc1c(SCc2ccc(C(=O)c3ccc(C(F)(F)F)cc3)cc2)nc2n(c1=O)CCCS2 [Example 365, 3,4-Dihydro-7-methyl-8-(4-(4-trifluoromethylbenzoyl)benzylthio)-2H,6H-pyrimido[2,1-b][1,4]thiazin-6-one] | 6.2 nM | –
21 | Cc1cn(C)c2nc(SC(C)c3ccc(C(=O)c4ccc(F)cc4)cc3)n(C)c(=O)c12 (stereo not drawn) [57(B), 2-[1-[4-(4-Fluorobenzoyl)phenyl]ethyl]thio-3,5,7-trimethyl-7H-pyrrolo[2,3-d]pyrimidin-4(3H)-one] | 9 nM | –
22 | CCOP(=O)(OCC)Oc1ccc(C(=O)c2ccc(CSc3nc4cccc(C)c4c(=O)n3C)cc2)cc1 [Example 217, 2-[4-(4-Diethylphosphonooxybenzoyl)benzylthio]-3,5-dimethyl-4(3H)-quinazolinone] | – | IC50 ([1]; PC-3, 3 days incubation, MTT): < 1.52 nM
23 | CCn1c(SC)nc2c(cnn2Cc2ccc(C(=O)c3ccc(OC)cc3)cc2)c1=O [132(A), 5-Ethyl-1-[4-(4-methoxybenzoyl)benzyl]-6-methylthio-1,5-dihydro-4H-pyrazolo[3,4-d]pyrimidin-4-one] | 2 nM | –
24 | Cc1csc2nc(SCc3ccc(C(=O)c4ccc(OCCN5CCOCC5)cc4)cc3)n(C)c(=O)c12 [Example 148, 3,5-Dimethyl-2-[4-[4-(2-morpholinoethoxy)benzoyl]-benzylthio]thieno[2,3-d]pyrimidin-4(3H)-one] | < 1.52 nM | –
25 | Cc1nc2n(Cc3ccc(C(=O)c4ccc(Cl)cc4)cc3)ccn2c(=O)c1C(C)C [Example 181, 1-[4-(4-Chlorobenzoyl)benzyl]-6-isopropyl-7-methylimidazo[1,2-a]pyrimidin-5(1H)-one] | 3 nM | –
26 | Cc1cccc2nc(SCc3ccc(C(=O)c4ccc(OCC(=O)c5ccccc5)cc4)cc3)n(C)c(=O)c12 [Example 234, 3,5-Dimethyl-2-[4-(4-phenacyloxybenzoyl)benzylthio]-4-(3H)-quinazolinone] | 7 nM | –
27 | Cc1cn(C)c2nc(SCc3ccc(C(=O)c4ccc(Cl)cc4)cc3)n(C)c(=O)c12 [Example 55, 2-[4-(4-Chlorobenzoyl)benzyl]thio-3,5,7-trimethyl-7H-pyrrolo[2,3-d]pyrimidin-4(3H)-one] | < 1.52 nM | –
28 | Cc1c[nH]c2nc(SCc3ccc(C(=O)c4ccc(Cl)cc4)cc3)[nH]c(=O)c12 [Example 50, 2-[4-(4-Chlorobenzoyl)benzyl]thio-5-methyl-7H-pyrrolo[2,3-d]pyrimidin-4(3H)-one] | 9 nM | –
29 | Cc1cccc2nc(SCc3ccc(C(=O)c4ccc(OC(=O)N(C)C)cc4)cc3)n(C)c(=O)c12 [Example 228, 3,5-Dimethyl-2-[4-[4-(N,N-dimethylcarbamoyloxy)-benzoyl]benzylthio]-4(3H)-quinazolinone] | – | IC50 ([1]; Homo sapiens, 72 h): 7 nM
30 | Cc1cccc2nc(SCc3ccc(C(=O)c4ccc(C(=O)N5CCC(N6CCCCC6)CC5)cc4)cc3)n(C)c(=O)c12 [Example 193, 3,5-Dimethyl-2-[4-[4-(4-piperidinopiperidinocarbonyl)benzoyl]benzyl]thio-4(3H)-quinazolinone] | 2 nM | –
